Test results from US9169509B2, “Topoisomerase 2b as a predictor of susceptibility to anthracycline-induced cardiotoxicity” (Board of Regents, The University of Texas System, priority 2013, dated 2015).

Tested on: heart sections
Experiment: Masson's Trichrome staining of heart sections (fibrosis)
Assay type: in vivo, mouse
Description: FIGS. 6a-e: a. Schematic of chronic doxorubicin treatment protocol. All mice received a baseline MRI scan first. Tamoxifen was then administered by gavage at a dose of 25 mg/kg, once a day for 5 consecutive days. […] After the last MRI scan, mice were sacrificed and the hearts were removed and examined for histological changes and Top2b expression. b. RT-qPCR of genes involved in mitochondrial biogenesis. Mice were treated with doxorubicin (5 mg/kg) once a week for 5 weeks. Cardiomyocytes were isolated from the heart 72 hr after the last dose. Total RNA was extracted for RTqPCR analysis of genes important for the function and structure of the mitochondria. For each mRNA shown relative expression is graphed for Top2b^+/+ Control, Top2b^+/+ Dox, Top2b^Δ/Δ Control, and Top2b^Δ/Δ Dox (from left to right). One way ANOVA was used to determine statistical significance (p<0.05). Error bars indicated STDEV. The asterisks indicated a significant difference (p<0.05). c. ROS production and quantitation. Representative images of heart sections stained with Dihydroethidium (DHE), which, after oxidation, intercalated into DNA and stained the nuclei red. Mice were treated with doxorubicin (5 mg/kg) once a week for 5 weeks. […] The numbers of DHE-positive and total nuclei were counted as described and the percentage of DHE-positive nuclei was determined. […]

SMILES: COc1cccc2c1C(=O)c1c(O)c3c(c(O)c1C2=O)C[C@@](O)(C(=O)CO)C[C@@H]3O[C@H]1C[C@H](N)[C@H](O)[C@H](C)O1 [doxorubicin]
- Fibrosis in the hearts (Masson's Trichrome) (Top2b+/+ mice, doxorubicin 5 mg/kg once a week for 5 weeks, hearts 72 h after last dose): patchy fibrosis
- Fibrosis and other pathological changes after chronic treatment, relative to Top2b+/+ hearts (Top2bΔ/Δ hearts, chronic doxorubicin 5 mg/kg once a week for 5 weeks): much less so
